Test results reported in publication PMC6271425, “Synthesis and Sar Study of Diarylpentanoid Analogues as New Anti-Inflammatory Agents” (Molecules, 2014).
Where two headings read alike, the source gives them in different places.

Experiments:
[1] = tested on: NO production in IFN-γ/LPS-stimulated RAW 264.7 macrophages; assay: NO suppression (Griess nitrite determination) in IFN-γ/LPS-stimulated RAW 264.7 macrophages; assay type: cell-based, murine; details: for NO Inhibition at 50 µM (%) ± S.E.M: 50 µM test concentration; for inhibition at 50 µM: RAW264.7, 50 µM test concentration, read-out: NO Inhibition at 50 µM (%) ± S.E.M
Method: The synthesized compounds were screened for NO suppression activity in IFN-γ/LPS-stimulated RAW 264.7 macrophages at a 50 µM test concentration. […] The IC50 values of the fifty-seven bioactive compounds were determined and compared to that of the positive control, curcumin. An MTT assay was also carried out to confirm that NO inhibition was not due to cytotoxicity. […] The complete bioassay results of all the compounds are provided as Table S2 in Supplementary Data. RAW 264.7 murine macrophages cells obtained from American Type Culture Collection (ATCC, Rockville, MD, USA) were grown in Dulbecco’s Modified Eagle’s Medium (DMEM) containing 10% fetal bovine serum (FBS) and 1% penicillin/streptomycin in a 95% air and 5% CO2 atmosphere at 37 °C. RAW 264.7 cells at 90%–95% confluency were detached and seeded (50,000 cells/well) into a 96-well culture plate with 50 μL of DMEM and incubated for 24 h. The cells were then stimulated in […] of LPS (Escherichia coli, serotype 0111:B4) and 1 ng/ml of interferon-gamma (IFN-γ) in the presence or absence of test compounds for 17 h. Nitrite concentration was then determined by Griess assay by reacting 50 μL of cell culture supernatant with 50 μL of Griess reagent (1% sulfanilamide and 0.1% N-(1-naphthyl)ethylenediamine dihydrochloride in 2.5% phosphoric acid) at room temperature. The optical density was measured at 550 nm after 5 min of incubation at room temperature with a microplate reader.

[2] = Cell cytotoxicity determination (MTT assay); assay type: cell-based, murine; details: mouse, RAW 264.7 macrophage cells, RAW 264.7 cells, read-out: Cytotoxicity IC50 (µM) ± S.E.M
Method: The synthesized compounds were screened for NO suppression activity in IFN-γ/LPS-stimulated RAW 264.7 macrophages at a 50 µM test concentration. […] The IC50 values of the fifty-seven bioactive compounds were determined and compared to that of the positive control, curcumin. An MTT assay was also carried out to confirm that NO inhibition was not due to cytotoxicity. […] The complete bioassay results of all the compounds are provided as Table S2 in Supplementary Data.
RAW 264.7 murine macrophages cells obtained from American Type Culture Collection (ATCC, Rockville, MD, USA) were grown in Dulbecco’s Modified Eagle’s Medium (DMEM) containing 10% fetal bovine serum (FBS) and 1% penicillin/streptomycin in a 95% air and 5% CO2 atmosphere at 37 °C.
Supernatant in each well was removed followed by addition of 100 µL DMEM. Subsequently, 20 µL of 3-(4,5-dimethylthiazol-2-yl)-2,5-diphenyltetrazolium bromide (MTT, 5 mg/mL) was then added and the plate was incubated in a 95% air and 5% CO2 atmosphere at 37 °C for 4 h. The mixture of culture media and MTT in all wells were removed and the purplish formazan crystals formed were dissolved in dimethyl sulfoxide (DMSO) and further incubated for 15 min at room temperature. The color intensity was then measured at 570 nm at room temperature.

[3] = IFN-γ/LPS-stimulated RAW 264.7 cells
[4] = Mus musculus, IFN-γ/LPS-stimulated RAW 264.7 cells
[5] = Mus musculus, RAW264.7, IFN-γ/LPS-stimulated RAW 264.7 cells, read-out: NO Inhibition IC50 (µM) ± S.E.M
[6] = Mus musculus, RAW264.7, Table 6, NO suppression IC50 used for QSAR, unit inferred, read-out: IC50
[7] = Mus musculus, RAW264.7, −log IC50 of NO suppression, read-out: pIC50 (converted)
[8] = IFN-γ/LPS-stimulated RAW 264.7 cells, read-out: NO Inhibition IC50 (µM) ± S.E.M

Compound	NO Inhibition at 50 µM (%) ± S.E.M [1, 3] [%]	inhibition at 50 µM [1, 4] [%]	IC50 [1, 5] [µM]	IC50 [1, 6] [µM]	IC50 [1, 7] [µM]	IC50 [2] [µM]	IC50 [1, 8] [µM]
O=C(/C=C(O)/C=C/c1ccccc1)c1ccccc1O [Compound 1]	94.7 ± 1.2	94.7 ± 1.2	22.6 ± 0.515	22.6 ± 0.5	22.4	56.2 ± 1.1	–
O=C(/C=C(O)/C=C/c1ccccc1Cl)c1ccccc1O [Compound 2]	–	91 ± 2.9	27.32 ± 0.234	27.3 ± 0.2	27.5	> 100	–
O=C(/C=C(O)/C=C/c1cccc(Cl)c1)c1ccccc1O [Compound 3]	93.0 ± 3.4	93 ± 3.43	26.7 ± 0.732	26.7 ± 0.7	26.9	> 100	–
O=C(/C=C(O)/C=C/c1cccc(Br)c1)c1ccccc1O [Compound 4]	88.4 ± 3.2	88.4 ± 3.21	29.4 ± 0.7	29.4 ± 0.7	29.5	> 100	–
COc1ccccc1/C=C/C(O)=C/C(=O)c1ccccc1O [Compound 5]	91.8 ± 1.5	91.8 ± 1.49	25.7 ± 0.621	25.7 ± 0.6	25.7	> 100	–
COc1cccc(/C=C/C(O)=C/C(=O)c2ccccc2O)c1 [Compound 6]	81.6 ± 4.0	81.6 ± 3.97	31.6 ± 0.632	31.6 ± 0.6	31.6	> 100	–
COc1ccc(/C=C/C(O)=C/C(=O)c2ccccc2O)cc1OC [Compound 8]	94.7 ± 1.7	94.7 ± 1.7	24.6 ± 0.73	24.6 ± 0.7	24.5	> 100	–
COc1cc(/C=C/C(O)=C/C(=O)c2ccccc2O)cc(OC)c1OC [Compound 9]	96.6 ± 1.4	96.6 ± 1.43	16.6 ± 1.14	16.6 ± 1.1	16.6	> 100	< 20
O=C(/C=C(O)/C=C/c1ccco1)c1ccccc1O [Compound 12]	82.0 ± 3.2	82 ± 3.18	49 ± 1.05	49 ± 1	49	> 100	–
COc1ccc(OC)c(/C=C/C(O)=C/C(=O)c2ccccc2O)c1 [Compound 14]	–	92.9 ± 0.2	28.4 ± 0.435	28.4 ± 0.4	28.2	> 100	–
O=C(/C=C(O)/C=C/c1cccs1)c1ccccc1O [Compound 16]	79.1 ± 4.6	79.1 ± 4.58	42.64 ± 0.128	42.6 ± 0.1	42.7	> 100	–
Cc1ccc(/C=C/C(O)=C/C(=O)c2ccccc2O)s1 [Compound 18]	58.9 ± 5.8	58.9 ± 5.76	39.6 ± 4.13	39.6 ± 4.1	39.8	> 100	–
O=C(/C=C(O)/C=C/c1cccc2ccccc12)c1ccccc1O [Compound 19]	85.8 ± 3.9	85.8 ± 3.93	23 ± 1.7	23 ± 1.7	22.9	> 100	–
O=C(/C=C(O)/C=C/c1ccccc1)c1cc(Cl)ccc1O [Compound 21]	85.3 ± 6.8	85.3 ± 6.76	47.6 ± 1.14	47.6 ± 1.1	47.9	> 100	–
O=C(/C=C(O)/C=C/c1ccccc1Cl)c1cc(Cl)ccc1O [Compound 22]	82.5 ± 4.3	82.5 ± 4.32	30 ± 2.1	30 ± 2.1	30.2	> 100	–
O=C(/C=C(O)/C=C/c1cc(O)ccc1O)c1ccccc1O [Compound 83]	94.3 ± 1.8	94.3 ± 1.83	16.7 ± 0.557	16.7 ± 0.6	16.6	–	< 20
